Values of other authors, collected in PMC12298827, “Subchronic Toxicities of Four Per- and Polyfluoroalkyl Substances (PFASs) by Oral Exposure in Sprague–Dawley Rats” (Toxics, 2025).

Test system: male and female rats
Settings: cited from earlier work

O=S(=O)(O)C(F)(F)C(F)(F)C(F)(F)C(F)(F)F [perfluorobutane sulfonate]
Effect on liver weights or bodyweights (doses of up to 600 mg/kg-day, 90-day oral gavage, male or female rats ref 21): did not affect the liver weights or bodyweights

N.O=C(O)C(F)(F)C(F)(F)C(F)(F)F [ammonium perfluorobutyrate]
Effect on absolute and relative liver weights (28- and 90-day oral gavage ref 16): significant increases in the absolute and relative liver weights only in male rats
